# Source: PubChem BioAssay (NCI)
# Values joined by “and” are separate entries in the source; they are usually repeats but may differ in a detail not shown here. Equal values may be shown once.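 1) Cells in 96-well plates. 2) Compound, 48 h, 5 concentrations. 3) Linear interpolation between surrounding doses. 4) Unreached endpoint = highest concentration. Abbreviation: GI50, concentration required for 50% inhibition of growth. TGI: concentration producing complete growth inhibition.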 Where a SMILES comes first, the peptide text is derived from it. The star is where a group is joined. Boc = CC(C)(C)OC(=O)*; OSu = O=C1CCC(=O)N1O*
# Columns and labels:
# Assay in all cases: inhibition of tumour cell growth, NCI panel, 48 h
# [1] = system: NCI-H460 lung
# [2] = system: SNB-75 CNS
# [3] = system: CAKI-1 renal
# [4] = system: MDA-N
# [5] = system: HCT-15 colon
# [6] = system: HS 578T breast
# [7] = system: SNB-19 CNS
# [8] = system: CCRF-CEM leukemia
# [9] = system: SR leukemia
# [10] = system: HL-60(TB) leukemia
# [11] = system: COLO 205 colon
Compound,TGI [1] [µM],TGI [2],TGI [3],TGI [4] [µM],TGI [5] [µM],TGI [6],TGI [7] [µM],TGI [8] [µM],TGI [9],TGI [10],TGI [11] [µM],GI50 [4],GI50 [7],GI50 [9],GI50 [11]
O=c1c2ccccc2[nH]c(=S)n1-c1ccc(N=Nc2cccc3c(O)cccc23)cc1,> 100,> 100 µM,> 100 µM,> 100,> 100,> 100 µM,> 100,> 100,> 100 µM,> 100 µM,> 100,,,,
CC(C)(C)OC(=O)NCCCCC(NC(=O)OCc1ccccc1)C(N)=O (configuration not stated),> 100,> 100 µM,> 100 µM,> 100,> 100,> 100 µM,> 100,> 100,> 100 µM,> 100 µM,> 100,,,,
O=c1[nH]c2nc3ccccc3c(=O)n2/c1=C/c1ccc(O)cc1,,> 100 µM,> 100 µM,> 100,> 100,69.7 µM,51.3,> 100,> 100 µM,> 100 µM,> 100,,,,
Nc1nc(Cl)cc(NCC2(CO)CC(CCc3ccccc3)C2)n1 (configuration not stated),> 100,> 90.2 µM,> 100 µM,> 100,> 100,> 100 µM,> 100,> 100,> 88.8 µM,> 94.2 µM,> 100,,,,
C=CC(=O)c1ccc2c(c1)OCCOCCOCCOCCOCCO2,> 100,> 91.6 µM,68 µM,> 100,39.2,> 100 µM,> 100,> 100,> 100 µM,> 100 µM,33,,,,
COC(=O)C1(Cc2ccccc2)Cc2cc3c(cc2C1=O)CCC3 (configuration not stated),35,> 100 µM,,37.3,> 100,> 100 µM,> 100,52.9,47.2 µM,36.7 µM,39.5,,,,
COc1cc2oc(-c3ccc(O)cc3)c(OC3OC(C)C(O)C(O)C3O)c(=O)c2c(O)c1OC (configuration not stated),> 100,> 100 µM,> 100 µM,> 100,> 100,> 100 µM,> 100,> 100,> 100 µM,> 100 µM,> 100,,,,
CCCCc1c(O)nc(Nc2nc3ccccc3[nH]2)[nH]c1=O,> 100,> 100 µM,> 100 µM,> 100,> 100,88 µM,> 100,> 100,> 100 µM,> 100 µM,> 100,,,,
CC(=O)C(CN1CCCCC1)C(c1ccccc1)c1c(O)c2ccccc2oc1=O (configuration not stated),> 100,> 100 µM,> 100 µM,> 100,> 100,> 100 µM,> 100,> 100,> 100 µM,> 100 µM,> 100,,,,
O=C1CC(c2ccco2)C2(C(=O)NC(=O)NC2=O)C(c2ccco2)C1 (configuration not stated),> 75,> 75 µM,> 75 µM,> 75,> 75,> 75 µM,> 75,> 75,> 75 µM,> 75 µM,> 75,,,,
CCCCN(CC)c1nc(C)nc2c1c(C)c(C)n2-c1c(C)cc(C)cc1C,27.5,27.4 µM,30.2 µM,38.6,27.6,38 µM,33.3,32.7,31.9 µM,19.3 µM,32.6,,,,
CCOC(=O)CCC(NC(=O)c1ccc(OCc2nc3cc(C(F)(F)F)ccc3nc2-c2ccccc2)cc1)C(=O)OCC (configuration not stated),> 100,52.1 µM,> 100 µM,> 100,> 100,> 100 µM,> 100,> 100,> 100 µM,> 100 µM,32.3,,,,
CC1(C)CC2(C)CC1CC2O (configuration not stated),,> 100 µM,> 100 µM,> 100,> 100,> 100 µM,> 100,> 100,> 100 µM,> 100 µM,> 100,,,,
COc1ccc(-c2c(C#N)c(S)n(C3OC(COC(C)=O)C(OC(C)=O)C(OC(C)=O)C3OC(C)=O)c(=O)c2C#N)cc1 (configuration not stated),> 100,60.6 µM and 89 µM,56.4 µM and 98.8 µM,> 100,> 100,93.7 µM and 95.5 µM,> 100,> 100,> 100 µM and 59.3 µM,> 100 µM and 45.6 µM,> 100,> 100 µM and 34.8 µM,34.1 µM and 75.3 µM,3.43 µM and 17.9 µM,> 100 µM and 40.7 µM
N#CC1=C(N)OC2=C(CSc3ccccc32)C1c1ccc(Br)cc1 (configuration not stated),26.8,21.7 µM,26.4 µM,14.4,24.5,> 100 µM,51.9,6.83,10.3 µM,6.17 µM,10.8,,,,
CC(C)(C)OC(=O)NC(Cc1ccc(O)cc1)C(=O)NC(CCCCN)C(=O)NC(Cc1ccc(O)cc1)C(=O)NC(CCCCN)C(=O)ON1C(=O)CCC1=O (configuration not stated) (Boc-YKYK-OSu; configuration not given here),> 100,> 100 µM,,> 100,> 100,> 100 µM,> 100,> 100,> 100 µM,> 100 µM,> 100,,,,
CCOC(=O)c1cc(C2(O)CCN(Cc3ccccc3)C2=O)c(-c2cc(C)no2)[nH]1 (configuration not stated),> 100,85.8 µM,74.3 µM,> 100,> 100,> 100 µM,> 100,> 100,> 100 µM,34.7 µM,> 100,,,,
c1sc(NC2=NCCO2)c2c1CCCC2,> 100,> 100 µM,> 100 µM,> 100,> 100,> 100 µM,> 100,> 100,> 100 µM,> 100 µM,> 100,,,,
O=C(NS(=O)(=O)Nc1ccc(Cl)cc1)OCc1ccc(Cl)cc1Cl,29.9,> 100 µM,,50.3,> 100,37.5 µM,48.4,> 100,> 100 µM,87.2 µM,32.3,,,,
COc1ccc(Nc2c(C#N)c3n(c4ccccc24)c2ccccc2[n+]3C)cc1OC,6.46,9.52 µM,4.33 µM,7.21,6.5,11.3 µM,32.4,> 100,> 100 µM,> 100 µM,12,,,,
Oc1ccccc1C(c1cc2c(cc1O)OCO2)N1CCOCC1 (configuration not stated),72.7,32 µM,35.9 µM,37.6,36.8,56.4 µM,37.2,5.26,24.6 µM,4.27 µM,34.8,,,,
Cc1ccc2c(c1)nc(N)n[n+]2[O-],> 100,> 100 µM,> 100 µM,> 100,> 100,> 100 µM,> 100,> 100,> 100 µM,> 100 µM,> 100,,,,
CCOC(=O)c1cc(=C2\CCN(CC(C)CC)C2=S)/c(=C(/O)CC)[nH]1 (configuration not stated),40.8,36.9 µM,26.4 µM,28.2,25.8,59.6 µM,34.7,21.7,26.3 µM,27.3 µM,24.1,,,,
Cc1ccc(N=Nc2c3c(c(O)c4ccccc24)CCC(C)(C)O3)cc1,32.8,36 µM,> 100 µM,14.1,67.3,84.4 µM,42.7,39.6,38.8 µM,49.7 µM,62.8,,,,
COc1ncc(C=C(C#N)C#N)c(OC)n1,> 100,> 100 µM,> 100 µM,92.6,> 100,> 100 µM,> 100,32.6,53.5 µM,49.7 µM,> 100,,,,
CCOC(=O)c1sc2nc(SC)nc3c2c1N=CN3c1ccc(Br)cc1,> 100,> 100 µM,> 100 µM,> 100,> 100,> 100 µM,> 100,> 100,> 100 µM,> 100 µM,> 100,,,,
C/C(=N\NC(=S)NC(C)C)c1nc2ncccc2[nH]1,> 100,> 66.7 µM,> 89.1 µM,> 100,> 100,69.7 µM,> 91.6,> 100,> 100 µM,> 100 µM,> 100,,,,
CCN(CC)CCn1c2cc3c(cc2c(=O)c2cccnc21)OCCO3,,> 10 µM,> 10 µM,> 10,> 10,> 10 µM,> 10,> 10,> 10 µM,> 10 µM,> 10,,,,
O=C(O)c1ccc(NC(c2ccccc2)c2ccc3cccnc3c2O)cc1 (configuration not stated),> 48.5,56.7 µM,59.2 µM,> 100,> 100,> 73.7 µM,> 100,6.05,> 100 µM,10.4 µM,> 86.9,,,,
O=C1CC2C=CC(O)C(C1)C2 (configuration not stated),> 100,> 100 µM,,> 100,> 100,> 100 µM,> 100,> 100,> 100 µM,> 100 µM,> 100,,,,
